Experimental data reported in article PMC4684357, “Comparative Evaluation of the Antimicrobial Activity of Different Antimicrobial Peptides against a Range of Pathogenic Bacteria” (PLoS ONE, 2015).
Read-outs that look alike come from different tables or passages of the source. Residues, ends and D or L forms follow the SMILES beside them. No end group written: not given here.

What was measured:
horse erythrocytes = assay: Cytotoxicity assay: haemoglobin release (hemolytic activity); assay type: cell-based; conditions: washed horse erythrocytes 10% (v/v) in PBS, 60 min 37°C, absorbance 540 nm, relative to full lysis by 0.2% Triton X-100, average ± SD of duplicates
Experimental: The cytotoxicity for each AMP was determined spectrophotometrically by measuring the haemoglobin release from horse erythrocytes. Briefly, fresh defibrinated horse blood was washed three times with PBS, centrifuged for 15 minutes at 1000g and resuspended at 10% (v/v) in PBS. Samples of the washed horse erythrocytes (100 μl) were transferred to a 96 well microtiter plate and mixed with 100 μl AMP solution. PBS was used as a negative control, and 0.2% TritonX-100 was used as a positive control. The microtiter plates were incubated for 60 minutes at 37°C and then centrifuged for 10 minutes at 1300g. The supernatants were transferred to a flat-bottom 96 well polystyrene microtiter plate and the haemoglobin release was monitored by measuring the absorbance at 540 nm. The percentage of hemolysis was calculated as 100 *(Asample−APBS)/(ATritonX-100 –APBS), where Asample is the experimental absorbance of the peptide sample, APBS is the control absorbance of untreated erythrocytes, and ATritonX-100 is the absorbance of 0.2% TritonX-100 lysed cells.

BW25113 wild-type = assay: MIC in LPS backgrounds; assay type: cell-based, Escherichia coli; conditions: E. coli BW25113 wild-type; CLSI; triplicates
Description: (§1) The Yersinia ruckeri strain was kindly provided by Prof. Kurt Buchmann, University of Copenhagen, Faculty of Health and Medical Sciences, and the Flavobacterium psychrophilum strain was kindly provided by Prof. Inger Dalsgaard, DTU, Denmark. BW25113 is the Escherichia coli wild-type strain, a derivative of the F^-,λ^- E. coli K12 strain BD792 which was used in generating the KEIO collection. E. coli ATCC25922 is a clinical isolate, serotype O6 and is often used as control strain in antimicrobial susceptibility testing. All strains were grown in Mueller-Hinton-II medium, except L. monocytogenes which was grown in BHI medium and F. psychrophilum which was grown in TYES medium (Tryptone yeast extract plus salts). Incubation took place aerobically at 37°C, except for Y. ruckeri and A. salmonicida, which were grown aerobically at RT (20°C), C. jejuni NCTC11168 which was grown under microaerophilic conditions at 42°C and F. psychrophilum 1947 which was grown under aerobic conditions at 15°C. All plates were incubated for 18–20 hours, except the F. psychrophilum plates, which were incubated for 72 hours.
(§2) The minimum inhibitory concentrations (MICs) of the AMPs were measured in 96-well microtiter plates according to the Clinical and Laboratory Standards Institute (CLSI, formerly National Committee for Clinical Laboratory Standards [NCCLS]). Briefly, liquid Mueller-Hinton-II medium containing increasing concentrations of AMPs is inoculated with a defined number of cells (approx. 10^5 CFUs/ml) in 96-well microtiter plates (polypropylene), whereas each plate also includes a positive growth control and a negative control (sterile control). After incubation, the MIC is determined by the lowest concentration showing no visible growth. All plates were incubated for 18–20 hours, except the F. psychrophilum plates which were incubated for 72 hours.

E. coli ATCC25922 [1] = system: E. coli ATCC25922
Experimental: as §2, with “hours. […]” for “hours.”

BW25113 ΔrfaC = assay type: cell-based, Escherichia coli; conditions: E. coli BW25113 ΔrfaC; CLSI; triplicates
Description: as §1, §2

BW25113 ΔrfaE = assay type: cell-based, Escherichia coli; conditions: E. coli BW25113 ΔrfaE; CLSI; triplicates
Description: as §1, §2

BW25113 ΔrfaG = assay type: cell-based, Escherichia coli; conditions: E. coli BW25113 ΔrfaG; CLSI; triplicates
Description: as §1, §2

BW25113 ΔrfaF = assay type: cell-based, Escherichia coli; conditions: E. coli BW25113 ΔrfaF; CLSI; triplicates
Description: as §1, §2

E. coli ATCC25922 [2] = assay type: cell-based, Escherichia coli
Description: as §1
All plates were incubated for 18–20 hours, except the F. psychrophilum plates which were incubated for 72 hours.
All the MIC measurements were carried out in duplicate.

ATCC25922 ΔrfaC = assay type: cell-based, Escherichia coli; conditions: E. coli ATCC25922 ΔrfaC; CLSI; triplicates
Description: as §1, §2
(§3) Construction of knock-out mutants of E. coli ATCC25922 were constructed using the λ-Red recombinase gene replacement system. Primers for amplification of the npt gene of pKD4 are listed in S1 Table. The correct double-crossover and recombination event was confirmed by primers listed in S1 Table and by sequencing. Finally, the kanamycin cassette was removed.

ATCC25922 ΔrfaG = assay type: cell-based, Escherichia coli; conditions: E. coli ATCC25922 ΔrfaG; CLSI; triplicates
Description: as §1, §2, §3

ATCC25922 ΔrfaE = assay type: cell-based, Escherichia coli; conditions: E. coli ATCC25922 ΔrfaE; CLSI; triplicates
Description: as §1, §2, §3

ATCC25922 ΔrfaF = assay type: cell-based, Escherichia coli; conditions: E. coli ATCC25922 ΔrfaF; CLSI; triplicates
Description: as §1, §2, §3

| Compound | Hemolytic Activity (horse erythrocytes; peptide 256 μg/ml) [%] | Antimicrobial Activity MIC (BW25113 wild-type) [µg/mL] | Antimicrobial Activity MIC (E. coli ATCC25922 [1]) [µg/mL] | Antimicrobial Activity MIC (BW25113 ΔrfaC) [µg/mL] | Antimicrobial Activity MIC (BW25113 ΔrfaE) [µg/mL] | Antimicrobial Activity MIC (BW25113 ΔrfaG) [µg/mL] | Antimicrobial Activity MIC (BW25113 ΔrfaF) [µg/mL] | Antimicrobial Activity MIC (E. coli ATCC25922 [2]) [µg/mL] | Antimicrobial Activity MIC (ATCC25922 ΔrfaC) [µg/mL] | Antimicrobial Activity MIC (ATCC25922 ΔrfaG) [µg/mL] | Antimicrobial Activity MIC (ATCC25922 ΔrfaE) [µg/mL] | Antimicrobial Activity MIC (ATCC25922 ΔrfaF) [µg/mL] | Hemolytic Activity (horse erythrocytes; peptide 128 μg/ml) [%] |
| --- | --- | --- | --- | --- | --- | --- | --- | --- | --- | --- | --- | --- | --- |
| CC[C@H](C)[C@H](NC(=O)[C@@H]1CCCN1C(=O)[C@H](CCCNC(=N)N)NC(=O)[C@@H]1CCCN1C(=O)[C@@H]1CCCN1C(=O)[C@@H](NC(=O)[C@@H]1CCCN1C(=O)[C@H](CCCNC(=N)N)NC(=O)[C@@H]1CCCN1C(=O)[C@H](CC(C)C)NC(=O)[C@H](Cc1ccc(O)cc1)NC(=O)[C@H](CO)NC(=O)CNC(=O)[C@H](CCCCN)NC(=O)[C@H](CC(=O)O)NC(=O)[C@@H](N)C(C)C)[C@@H](C)O)C(=O)N[C@@H](Cc1ccc(O)cc1)C(=O)N[C@@H](CC(N)=O)C(=O)N[C@@H](CCCNC(=N)N)C(=O)N[C@@H](CC(N)=O)C(=O)O [Pyrrhocoricin] (H-VDKGSYLPRPTPPRPIYNRN-OH) | 0 ± 0 | – | – | – | – | – | – | – | – | – | – | – | – |
| CC[C@H](C)[C@H](NC(=O)[C@H](CC(C)C)NC(=O)[C@H](CCCCN)NC(=O)[C@H](CC(C)C)NC(=O)[C@H](CC(C)C)NC(=O)[C@H](CCCCN)NC(=O)[C@H](CCCNC(=N)N)NC(=O)[C@H](Cc1ccccc1)NC(=O)[C@H](CC(C)C)NC(=O)[C@H](CCCCN)NC(=O)[C@H](CCCNC(=N)N)NC(=O)[C@H](CC(C)C)NC(=O)[C@@H](N)CCCCN)C(=O)N[C@@H](CCCNC(=N)N)C(=O)N[C@@H](CCCCN)C(=O)N[C@@H](CC(C)C)C(=O)N[C@@H](CC(C)C)C(=O)N[C@@H](CCCNC(=N)N)C(=O)O [Cap11-1-18m^2] (H-KLRKLFRKLLKLIRKLLR-OH) | – | 16 | 32 | 8 | 8 | 8 | 8 | 32 | 16 | 16 | 16 | 16 | – |
| CC[C@H](C)[C@H](NC(=O)CNC(=O)[C@H](CCC(=O)O)NC(=O)[C@H](CO)NC(=O)[C@@H](NC(=O)[C@H](CCCNC(=N)N)NC(=O)[C@H](CCCCN)NC(=O)[C@H](CCCCN)NC(=O)[C@H](C)NC(=O)[C@H](CO)NC(=O)[C@H](CC(N)=O)NC(=O)[C@H](CCC(=O)O)NC(=O)[C@H](CC(C)C)NC(=O)[C@H](CCCCN)NC(=O)[C@H](CCCCN)NC(=O)[C@H](C)NC(=O)[C@@H](NC(=O)[C@H](CCCCN)NC(=O)[C@H](CO)NC(=O)[C@H](CC(C)C)NC(=O)[C@H](Cc1c[nH]c2ccccc12)NC(=O)[C@@H](N)CO)[C@@H](C)O)[C@@H](C)CC)C(=O)N[C@@H](C)C(=O)N[C@H](C(=O)N[C@@H](C)C(=O)N[C@H](C(=O)N[C@@H](CCC(N)=O)C(=O)NCC(=O)NCC(=O)N1CCC[C@H]1C(=O)N[C@@H](CCCNC(=N)N)C(=O)O)[C@@H](C)CC)[C@@H](C)CC [Cecropin P1] (H-SWLSKTAKKLENSAKKRISEGIAIAIQGGPR-OH) | – | 16 to 32 | 16 | 8 | 8 | 16 | 4 | 32 | 8 | 16 | 8 | 8 | – |
| GLRKKFRKTRKRIQKLGRKIGKTGRKVWKAWREYGQIPYPCRI [Cap11] | – | 8 | 8 | 8 | 8 | 8 | 8 | 16 | 4 | 8 | 4 | 4 | – |
| CC[C@H](C)[C@H](NC(=O)CN)C(=O)NCC(=O)N[C@@H](C)C(=O)N[C@H](C(=O)N[C@@H](CC(C)C)C(=O)N[C@@H](CCCCN)C(=O)N[C@H](C(=O)N[C@@H](CC(C)C)C(=O)N[C@H](C(=O)N[C@H](C(=O)NCC(=O)N[C@@H](CC(C)C)C(=O)N1CCC[C@H]1C(=O)N[C@@H](C)C(=O)N[C@@H](CC(C)C)C(=O)N[C@H](C(=O)N[C@@H](CO)C(=O)N[C@@H](Cc1c[nH]c2ccccc12)C(=O)N[C@H](C(=O)N[C@@H](CCCCN)C(=O)N[C@@H](CCCNC(=N)N)C(=O)N[C@@H](CCCCN)C(=O)N[C@@H](CCCNC(=N)N)C(=O)N[C@@H](CCC(N)=O)C(=O)N[C@@H](CCC(N)=O)C(N)=O)[C@@H](C)CC)[C@@H](C)CC)[C@@H](C)O)[C@@H](C)O)C(C)C)C(C)C [Melittin, reference compound] | – | 16 to 32 | – | 4 | 4 | 4 | 4 | – | 2 | 4 | 2 | 2 | 110 ± 1 |
